Measurements reported in patent US8012971B2, “Therapeutic agent for chronic obstructive pulmonary disease” (Dainippon Sumitomo Pharma Co., Ltd., priority 2005, dated 2011).

What was measured:
[1] = system: Guinea Pig Chronic Obstructive Pulmonary Disease (COPD) Model; experiment: Inflammatory cells in bronchoalveolar fluid in guinea pig COPD model; type: in vivo; details: for Cell number in BALF, Macrophage / Cell number in BALF, Neutrophil / Cell number in BALF, Total: mean ± SEM of 8 animals
Protocol: (§1) An evaluation was carried out as follows according to a report of Kosuke MORIZUMI, Junichi FUCHIGAMI et al., 2002, The 75th Annual Meeting of the Japanese Pharmacological Society (2002) Abstract No. P-259, “Study of a chronic obstructive pulmonary disease-Effects of theophylline on respiratory function and lung function of guinea pigs in an exposure of cigarette smoke.”
(§2) Male Hartley strain guinea pigs (purchased from Japan SLC, Inc.) were taken in a cigarette exposure holder (RMH-TUBES, manufactured by Muenster Ltd.) to secure them to an exposure chamber (Flow-past type nose-only inhalation chamber, manufactured by Muenster Ltd.), and allowed to inhale cigarette smoke (Hi-Lite, manufactured by Japan Tobacco Inc.) for 60 minutes per day for 5 days in a week, totally 4 weeks using a smoking exposure equipment (Hamburg II, manufactured by Borgwaldt Technik), while the exposure was carried out for 4 days in the 4th week. • (2) Drug Administrations
(§3) Each 0.5% MC suspension of a test drug was orally administered daily in 5 ml/weight (kg) once a day for 25 days from the first day of the exposure. To a sham-exposure group and a control group was orally administered a 0.5% MC suspension in a similar manner. Any oral administrations were carried out 0.5 to 1 hours before exposures on a cigarette-smoke-exposure day or after measurements when measuring respiratory functions. A drug was not administered on the day for measurement of respiratory functions after finishing the 4th week of the exposure. • (3) Measurements of Airway Resistance
After measuring lung functions, animals were exsanguinated to death and opened the thorax, ligated the left bronchial bifurcation, and then injected saline (2.5 mL) into the right lung and aspirated the same via fixed cannula on measuring lung functions repeatedly in twice (totally 5 mL), and the recovery solution was obtained as a bronchoalveolar lavage fluid (BALF). BALF was centrifuged (230×g, 4° C., for 10 minutes) to give cell pellets. The pellets were suspended in saline (0.5 mL), and to a part of the suspension was added Turk solution (manufactured by Wako Pure Chemical Industries, Ltd.) so as to dilute 10 to 20 folds. Leukocyte numbers per 0.1 μL were measured by a blood cell counting chamber and leukocyte numbers per 1 μL were calculated. Cell suspensions were prepared again, smears were prepared using about 2000 to 3000 total cell numbers, May-Grunwald-Giemsa stain was carried out, leukocyte numbers were counted under the microscope, a ratio of each leukocyte number to total leukocyte number was obtained, and each cell number per 1 μL was calculated based on the ratio. Results are shown in each cell number per 1 μL.

[2] = system: Guinea Pig Chronic Obstructive Pulmonary Disease (COPD) Model; experiment: Histological investigations of lung in guinea pig COPD model; type: in vivo; details: 8 animals
Protocol: as §1, §2, §3
After collection of BALF, trachea and lung were isolated. The ligation site of the left lung was opened, injected neutral formalin buffer into trachea, bronchi and lung at the pressure of 20 cm H2O via cannula fixed on the side of the lung, and the lung tissue was extended to be fixed. According to a conventional method, tissue section samples were produced using posterior lobe of the left lung and hematoxylin-eosin (HE) stain was carried out. Any other lung tissues were stored in neutral formalin buffers. Drug efficacies of the produced tissue samples were evaluated by scoring tissue changes under the microscope. The criteria of scores were shown as follows: −: none, ±: minimal, +: mild, ++: moderate, +++: severe. Each quantification was calculated as 0, 1, 2, 3, 4.

## CNC(=O)NCCn1c(-c2ccc(N3CCOCC3)cc2)csc1=Nc1cccc(F)c1 [SMP-028, N-{2-[2-[(3-fluorophenyl)imino]-4-(4-morpholinophenyl)-thiazol-3(2H)-yl]ethyl}-N′-methylurea]
[1]; 10 mg/kg/day oral
  Cell number in BALF, Macrophage: 2506 ± 313 ^NS cells/μL
  Cell number in BALF, Neutrophil: 1114 ± 193 ^NS cells/μL
  Cell number in BALF, Total: 4044 ± 419 ^NS cells/μL
[1]; 30 mg/kg/day oral
  Cell number in BALF, Macrophage: 2497 ± 483 ^NS cells/μL
  Cell number in BALF, Neutrophil: 772 ± 277 ^NS cells/μL
  Cell number in BALF, Total: 3897 ± 783 ^NS cells/μL
[1]; groups of 10 mg/kg and 30 mg/kg, result in words
  infiltrations of the inflammatory cells in the airway: tended to be suppressed
[2]; 10 mg/kg/day for 25 days
  Number of animals with grade + (mild): A. Hyperplasia, epithelial cell, bronchus: 0
  Number of animals with grade + (mild): B. Cellular exudation, neutrophil/eosinophil, lumen, bronchiole: 0
  Number of animals with grade + (mild): C. Thickening, alveolar wall: 2
  Number of animals with grade + (mild): D. Accumulation, foamy/macrophage-like cell, alveolus: 2
  Number of animals with grade + (mild): E. Cellular infiltration, neutrophil, alveolus: 0
  Number of animals with grade ++ (moderate): A. Hyperplasia, epithelial cell, bronchus: 0
  Number of animals with grade ++ (moderate): B. Cellular exudation, neutrophil/eosinophil, lumen, bronchiole: 0
  Number of animals with grade ++ (moderate): C. Thickening, alveolar wall: 0
  Number of animals with grade ++ (moderate): D. Accumulation, foamy/macrophage-like cell, alveolus: 0
  Number of animals with grade ++ (moderate): E. Cellular infiltration, neutrophil, alveolus: 0
  Number of animals with grade +++ (severe): A. Hyperplasia, epithelial cell, bronchus: 0
  Number of animals with grade +++ (severe): B. Cellular exudation, neutrophil/eosinophil, lumen, bronchiole: 0
  Number of animals with grade +++ (severe): C. Thickening, alveolar wall: 0
  Number of animals with grade +++ (severe): D. Accumulation, foamy/macrophage-like cell, alveolus: 0
  Number of animals with grade +++ (severe): E. Cellular infiltration, neutrophil, alveolus: 0
  Number of animals with grade ± (minimal): A. Hyperplasia, epithelial cell, bronchus: 1
  Number of animals with grade ± (minimal): B. Cellular exudation, neutrophil/eosinophil, lumen, bronchiole: 1
  Number of animals with grade ± (minimal): C. Thickening, alveolar wall: 2
  Number of animals with grade ± (minimal): D. Accumulation, foamy/macrophage-like cell, alveolus: 3
  Number of animals with grade ± (minimal): E. Cellular infiltration, neutrophil, alveolus: 0
  Number of animals with grade − (none): A. Hyperplasia, epithelial cell, bronchus: 7
  Number of animals with grade − (none): B. Cellular exudation, neutrophil/eosinophil, lumen, bronchiole: 7
  Number of animals with grade − (none): C. Thickening, alveolar wall: 4
  Number of animals with grade − (none): D. Accumulation, foamy/macrophage-like cell, alveolus: 3
  Number of animals with grade − (none): E. Cellular infiltration, neutrophil, alveolus: 8
[2]; 30 mg/kg/day for 25 days
  Number of animals with grade + (mild): A. Hyperplasia, epithelial cell, bronchus: 0
